{
  "source": "paper PMC5930436",
  "about": "“Overexpressed HDAC8 in cervical cancer cells shows functional redundancy of tubulin deacetylation with HDAC6” (Cell Communication and Signaling : CCS, 2018)",
  "key": {"GST-HDAC8 [1]": {"tested_on": "GST-HDAC8", "test": "Circular dichroism binding study with GST-HDAC8", "parameters": "species or system human", "settings": "GST-HDAC8 (2 μM) + peptide (500 nM), 25 °C, 190-300 nm", "procedure": "(§1) hHDAC8 (Full length) cDNA was amplified by using a polymerase chain reaction (PCR) with forward primer: 5′– […]-3′ and a reverse primer: 5’–[…]–3′. The PCR product was then sub cloned into pGEX- 6P1 plasmid. Clone was then overexpressed in Escherichia coli strain BL21 (DE3) with standardized expression conditions of 0.1 mM IPTG at 28 °C for 4 h. Induced culture pellet was lysed in 1XPBS buffer (140 mM NaCl, 2.7 mM KCl, 10 mM Na2HPO4, 1.8 mM KH2PO4) along with 1X Protease inhibitor cocktail, 1 mM PMSF, and 0.1 mM DTT. To the lysate 1% Triton X 100 is added and centrifuged for 20 min at a speed of 4000 rpm at 4 °C. Clear supernatant was used for binding with GST binding buffer (25 mM Tris pH 7.5, 300 mM NaCl, 1 mM EDTA, 1X Protease inhibitor cocktail) for 3 h on a rota spin at 4 °C. Binding was followed by collection of unbound and washes with 1X PBS (5 washes). Elutions were collected in 10 mM reduced glutathione, dissolved in 50 mM Tris pH 8.0. The purity of the protein was then analysed on SDS PAGE, followed by Western blot. Activity was then determined by HDAC activity assay.\nBinding studies of GST-HDAC8 protein (2 μM) and acetylated (Lys40) or unacetylated alpha tubulin peptides (500 nM) were carried out on Jasco J-1500 (model L-1500-450) CD spectroscopy. Changes incurred in the secondary structure of GST-HDAC8 upon binding of the peptides were recorded as the mean ellipticity, with given set of parameters: start wavelength of 300 nm, end wavelength of 190 nm, scan speed of 100 nm/min, band width of 2 nm, cuvette cell size of 2 mm and at a temperature of 25 °C with two scan accumulations."}, "HEK 293 T cells [2]": {"tested_on": "HEK 293 T cells", "test": "Cell cycle analysis, HEK 293 T", "format": "cell-based, human", "settings": "PCI-34051 (20 μM), 48 h", "procedure": "(§2) Cells (HeLa & HEK 293 T) were grown to attain 70% confluency and were serum starved for 12 h, followed by treatments with PCI-34051 (20 μM) and Paclitaxel (20 μM) respectively for 48 h and processed for cell cycle analysis."}, "HDAC8": {"tested_on": "HDAC8", "settings": "cited from earlier work", "text": "The cytoplasmic localization of HDAC8 was further confirmed by immunoblot analysis using total, cytoplasmic and nuclear protein fractions of HEK 293 T and HeLa (Fig. 1d). […] With forskolin treatment, there was significant inc ... || In silico and spectroscopy based results have confirmed the interaction of HDAC8 with alpha tubulin & acetylated alpha tubulin peptide. To further validate the functional interaction we carried out IP and co-IP experiments with HDAC8 and acetylated alpha tubulin (ac-tubulin) antibodies. […] Densitometry results for the fold expression ..."}, "HeLa cells [3]": {"tested_on": "HeLa cells", "test": "Cell morphology analysis, HeLa", "format": "cell-based, human", "settings": "20 μM", "procedure": "(§3) HeLa and HEK 293 T cells are cultured in 6 well plates till attaining 70% confluency. Cells are starved for 12 h without serum and treated with PCI-34051 (20 μM) and Paclitaxel (20 μM) along with untreated control for 24 & 48 h. Examined difference in the morphology was captured by Olympus CKX41, ProgRes CT3 phase contrast microscope at 10X focussed lens."}, "HeLa cells [4]": {"tested_on": "HeLa cells", "test": "Cell migration (wound) assay in HeLa cells", "format": "cell-based, human", "procedure": "HeLa cells are grown in 6 well plates in duplicates till it attains 90% confluency and starved with serum free media for overnight. Using a sterile 200 μl tip wound is created by drawing straight lines at three different points in each well. Detached cells are aspirated and washed three times with 1XPBS. Cells are treated with PCI-34051 (10 μM & 20 μM) and Paclitaxel (10 μM & 20 μM) dissolved in 2% FBS respectively along with control (untreated). Migrated cells into the wound were examined by capturing images using Olympus CKX41, ProgRes CT3 phase contrast microscope after 24 and 48 h."}, "HeLa cells [5]": {"tested_on": "HeLa cells", "test": "Cell cycle analysis, HeLa", "format": "cell-based, human", "settings": "PCI-34051 (20 μM), 48 h, vs untreated control", "procedure": "as §2"}, "HEK 293 T cells [6]": {"tested_on": "HEK 293 T cells", "test": "Cell morphology analysis, HEK 293 T", "format": "cell-based, human", "settings": "20 μM, 24 & 48 h, vs control", "procedure": "as §3"}, "[7]": {"tested_on": "acetylated alpha tubulin, HEK 293 T", "test": "Immunoblot of acetylated alpha tubulin in HEK 293 T cells", "format": "cell-based, human", "settings": "24 h; for acetylated alpha tubulin levels: HEK 293 T", "procedure": "(§4) Human embryonic kidney cells, HEK293T, human cervical carcinoma cells, HeLa, human breast cancer cells, MDA-MB 231, human lung adenocarcinoma cellsA549, chronic myeloid leukemia cells, K562, and human colon cancer cells, HCT11, were obtained from National Centre for Cell Sciences (NCCS), Pune, India. Cell line authentication by STR analysis was performed for 10 genetic loci for all the cell lines by Life code, Genomic technologies Pvt. Ltd., and tested for mycoplasma negative by performing PCR (mycoplasma specific genes) using EZdetect PCR kit for mycoplasma detection (CCK009). All the cells were cultured in high glucose DMEM medium containing 10% foetal bovine serum and 1% Penicillin/streptomycin (Himedia). Cells were seeded in 60 mm dishes and upon attaining 80–90% confluency, treatment was given with PCI-34051(Cayman Chemicals) (10 μM/20 μM) and tubastatin (5 μM) for 24 h or both in combination (PCI-34051 and Tubastatin) and Forskolin (Sigma) (10 μM) for 45 min independently along with untreated control as described earlier.\n(§5) Total, cytoplasmic and nuclear fractions of HeLa or HEK 293 T cells treated with or without PCI-34051 (20 μM), [12] tubastatin (5 μM) and/or forskolin (10 μM) were prepared as described previously. Total protein samples of HEK 293 T, HeLa, MDAMB 231, K562, A549 and HCT11 cells / immunoprecipitated HDAC8 and HDAC6 samples from both HeLa and HEK 293 T lysates / HDAC8 siRNA transfected HEK 293 T and HeLa lysates were also prepared. The proteins were separated on 10 or 12% SDS-PAGE, transferred on to nitrocellulose membrane and probed with primary antibodies of HDAC8, Beta actin, Alpha tubulin, anti-acetylated alpha tubulin, HDAC6 and GAPDH. The bands were visualized using chemiluminiscence after probing with HRP-conjugated secondary antibody.\n(§6) Source for siRNA oligonucleotides were considered from with sequence, HDAC8 Sense: […] and Anti-sense: […]. The oligonucleotides were converted into siRNA by following standard protocol as described earlier. HeLa and HEK 293 T cells were transfected with HDAC8 siRNA (10–15 μg/100 mm dish) using lipofectamine 2000 (Invitrogen), and considering untransfected as control. Cells were harvested after 72 h of post-transfection and processed for total RNA and protein isolation."}, "[8]": {"tested_on": "acetylated alpha tubulin, HeLa", "test": "Immunoblot of acetylated alpha tubulin in HeLa cells", "format": "cell-based, human", "settings": "24 h", "procedure": "as §4, §5, §6"}, "GST-HDAC8 [9]": {"tested_on": "GST-HDAC8", "test": "HPLC-based in vitro deacetylation assay with GST-HDAC8", "format": "biochemical, human", "settings": "GST-HDAC8 (2 μM; 30 μg) + peptide (500 nM), 15 min, 37 °C, 50 mM Tris pH 7.5, 1 mM DTT, HPLC C18", "procedure": "as §1\nIn vitro deacetylation assay of custom synthesized acetylated (Lys40) alpha tubulin was carried out on HPLC (Schimadzu) with C18 (4.6 × 250 mm) column as described earlier. […]"}},
  "note": "Entries after “also recorded” stand apart in the source; their conditions may differ.",
  "data": [
    {"compound": "DGQMPSDKTIGGGD [Unac-alpha tubulin peptide, Custom synthesized, Unacetylated Alpha tubulin peptide …]", "values": [
      {"measurement": "change in secondary structure of GST-HDAC8 (CD)", "setting": "GST-HDAC8 [1]; listed as unacetylated form", "result": "without any notable differences"},
      {"measurement": "change in secondary structure of GST-HDAC8 (CD)", "setting": "GST-HDAC8 [1]; listed as unacetylated tubulin", "result": "not observed"}
    ]},
    {"compound": "COc1ccc(Cn2ccc3ccc(C(=O)NO)cc32)cc1", "note": "[PCI-34051]", "values": [
      {"measurement": "mitotic phase of cell cycle", "setting": "HEK 293 T cells [2]", "result": "did not show any mitotic phase reduction; also recorded: no major significant change in the mitotic phase"},
      {"measurement": "sub G0/G1 phase", "setting": "HEK 293 T cells [2]", "result": "significant increase in the sub G0/G1 phase"},
      {"measurement": "HDAC8 selectivity", "setting": "HDAC8", "result": "HDAC8 selective inhibitor"},
      {"measurement": "cell morphology effect compared with positive control", "setting": "HeLa cells [3]; HeLa (shrinkage) and HEK 293 T (clump formation)", "result": "quite comparable to that of paclitaxel treated condition"},
      {"measurement": "cell morphology (cell size)", "setting": "HeLa cells [3]; HeLa, 24 & 48 h, vs control", "result": "reduced (shrinking) cell size; also recorded: decreased cell size (shrinking)"},
      {"measurement": "migration efficiency", "setting": "HeLa cells [4]; PCI-34051 (10 μM & 20 μM), upto 48 h", "result": "significantly decreased"},
      {"measurement": "migration efficiency (rank order)", "setting": "HeLa cells [4]; PCI-34051 (10 μM) or Paclitaxel (10 μM), 24 and 48 h", "result": "Control> > Paclitaxel>PCI-34051"},
      {"measurement": "cell size during migration assay", "setting": "HeLa cells [4]; PCI-34051, upto 48 h", "result": "notable decrease in cell size"},
      {"measurement": "mitotic phase of cell cycle", "setting": "HeLa cells [5]", "result": "significant (p < 0.05) reduction in mitotic phase"},
      {"measurement": "sub G0/G1 peak", "setting": "HeLa cells [5]", "result": "increased sub G0/G1 peak"},
      {"measurement": "cell morphology (aggregation / clump formation)", "setting": "HEK 293 T cells [6]", "result": "clump formation; also recorded: cell aggregation"},
      {"measurement": "acetylated alpha tubulin levels", "setting": "[7]; PCI-34051 (20 μM)", "result": "no significant increase"},
      {"measurement": "acetylated alpha tubulin levels, compared to tubastatin treated condition", "setting": "[8]; PCI-34051 (20 μM) vs tubastatin", "result": "Increased ac-alpha tubulin levels"},
      {"measurement": "acetylated alpha tubulin levels", "setting": "[8]; PCI-34051 (20 μM)", "result": "ac-alpha tubulin levels increase; also recorded: increased acetylated alpha tubulin levels; also recorded: increased the acetylation of alpha tubulin in HeLa"}
    ]},
    {"compound": "CN1CCc2c(c3ccccc3n2Cc2ccc(C(=O)NO)cc2)C1", "note": "[Tubastatin]", "values": [
      {"measurement": "acetylated alpha tubulin levels, compared to PCI-34051 (20 μM) treated condition", "setting": "[7]; HEK 293T, tubastatin (5 μM) vs PCI-34051 (20 μM)", "result": "increases ac-alpha tubulin levels"},
      {"measurement": "acetylated alpha tubulin levels", "setting": "[7]; tubastatin (5 μM), HDAC6 inhibition", "result": "increase in ac-alpha tubulin levels"}
    ]},
    {"compound": "DGQMPSDKTIGGGD [ac-alpha tubulin peptide, Custom synthesized peptides of alpha tubulin 33–46 amino acids, Acetylated alpha tubulin peptide, at Lys40 …]", "values": [
      {"measurement": "in vitro deacetylation by GST-HDAC8 (shift to retention time of unacetylated peptide)", "setting": "GST-HDAC8 [9]", "result": "clearly demonstrates the in vitro deacetylation of ac-alpha tubulin by GST-HDAC8"},
      {"measurement": "in vitro deacetylation by GST-HDAC8 (shift to retention time of unacetylated peptide)", "setting": "GST-HDAC8 [9]; listed as acetylated alpha tubulin (Lys40) peptide", "result": "significant peak shift in the retention time corresponding to unacetylated peptide"},
      {"measurement": "change in secondary structure of GST-HDAC8 (CD)", "setting": "GST-HDAC8 [1]", "result": "significant change in the secondary structure of GST-HDAC8"},
      {"measurement": "change in secondary structure of GST-HDAC8 (CD)", "setting": "GST-HDAC8 [1]; listed as acetylated alpha tubulin", "result": "change in the secondary structure of GST-HDAC8; also recorded: significant change in the secondary structure"}
    ]}
  ]
}
